Results published in the kinase profiling compilation of Christmann-Franck et al. (2016).

Legend:
Experiment in all cases: radiometric filter-binding kinase assay, Kinase HotSpot
Conditions in all cases: compound 0.5 µM; ATP 10 µM
[1] = molecular target: NEK6 (human) (UniProt Q9HC98)
[2] = molecular target: DYRK1B (human) (UniProt Q9Y463)
[3] = molecular target: LTK (human) (UniProt P29376)
[4] = molecular target: NEK7 (human) (UniProt Q8TDX7)
[5] = molecular target: PRKCH (human) (UniProt P24723)
[6] = molecular target: STK33 (human) (UniProt Q9BYT3)
Chain of STK33 (human) (Q9BYT3 whole entry, looked up): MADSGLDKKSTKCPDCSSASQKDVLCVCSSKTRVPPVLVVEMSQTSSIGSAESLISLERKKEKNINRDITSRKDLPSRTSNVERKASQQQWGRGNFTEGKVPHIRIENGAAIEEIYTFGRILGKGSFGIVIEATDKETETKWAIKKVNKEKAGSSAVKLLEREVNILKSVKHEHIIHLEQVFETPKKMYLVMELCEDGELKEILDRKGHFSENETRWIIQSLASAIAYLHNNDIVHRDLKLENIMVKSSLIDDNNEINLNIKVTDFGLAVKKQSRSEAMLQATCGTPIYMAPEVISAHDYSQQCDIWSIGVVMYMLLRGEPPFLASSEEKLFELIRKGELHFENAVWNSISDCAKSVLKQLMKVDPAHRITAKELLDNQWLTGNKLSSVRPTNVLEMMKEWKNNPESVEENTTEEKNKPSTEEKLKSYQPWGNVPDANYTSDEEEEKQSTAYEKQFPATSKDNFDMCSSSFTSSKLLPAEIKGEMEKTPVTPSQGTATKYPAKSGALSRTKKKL

[7] = molecular target: CDK1 CCNB1 (human) (UniProt P06493+P14635)
Chain of CDK1 CCNB1 (human) (P06493 whole entry, looked up): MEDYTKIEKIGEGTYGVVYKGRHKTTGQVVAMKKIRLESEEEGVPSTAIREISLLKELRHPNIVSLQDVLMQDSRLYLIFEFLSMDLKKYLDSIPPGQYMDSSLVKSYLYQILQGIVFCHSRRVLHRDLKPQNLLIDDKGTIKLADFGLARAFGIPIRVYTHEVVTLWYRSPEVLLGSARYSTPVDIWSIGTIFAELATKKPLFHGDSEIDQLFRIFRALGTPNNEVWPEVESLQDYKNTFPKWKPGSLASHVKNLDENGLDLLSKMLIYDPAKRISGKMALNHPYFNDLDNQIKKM
Chain of CDK1 CCNB1 (human) (P14635 whole entry, looked up): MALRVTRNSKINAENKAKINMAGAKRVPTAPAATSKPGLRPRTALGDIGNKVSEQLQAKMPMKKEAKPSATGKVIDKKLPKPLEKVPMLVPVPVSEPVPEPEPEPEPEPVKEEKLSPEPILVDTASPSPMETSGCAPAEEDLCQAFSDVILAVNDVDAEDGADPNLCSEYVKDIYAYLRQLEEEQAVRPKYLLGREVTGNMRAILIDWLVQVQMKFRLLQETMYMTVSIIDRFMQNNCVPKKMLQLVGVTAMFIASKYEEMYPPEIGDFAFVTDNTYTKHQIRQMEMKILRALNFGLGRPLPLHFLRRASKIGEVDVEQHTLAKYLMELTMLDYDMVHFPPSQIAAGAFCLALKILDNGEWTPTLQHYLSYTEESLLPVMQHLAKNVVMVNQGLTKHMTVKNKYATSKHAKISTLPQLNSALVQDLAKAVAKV

[8] = molecular target: CDK2 CCNE1 (human) (UniProt P24941+P24864)
[9] = molecular target: CDK6 CCND3 (human) (UniProt P30281+Q00534)
[10] = molecular target: CDK1 CCNA2 (human) (UniProt P06493+P20248)
[11] = molecular target: CDK4 CCND1 (human) (UniProt P24385+P11802)
[12] = molecular target: CDK7 CCNH MNAT1 (human) (UniProt P50613+P51948+P51946)
[13] = molecular target: CDK5 CDK5R1 p35 (human) (UniProt Q00535+Q15078)
[14] = molecular target: CDK2 CCNA2 (human) (UniProt P24941+P20248)
[15] = molecular target: CDK4 CCND3 (human) (UniProt P30281+P11802)
[16] = molecular target: CDK6 CCND1 (human) (UniProt Q00534+P24385)
[17] = molecular target: MAP3K7 TAB1 (human) (UniProt O43318+Q15750)
Chain of MAP3K7 TAB1 (human) (O43318 whole entry, looked up): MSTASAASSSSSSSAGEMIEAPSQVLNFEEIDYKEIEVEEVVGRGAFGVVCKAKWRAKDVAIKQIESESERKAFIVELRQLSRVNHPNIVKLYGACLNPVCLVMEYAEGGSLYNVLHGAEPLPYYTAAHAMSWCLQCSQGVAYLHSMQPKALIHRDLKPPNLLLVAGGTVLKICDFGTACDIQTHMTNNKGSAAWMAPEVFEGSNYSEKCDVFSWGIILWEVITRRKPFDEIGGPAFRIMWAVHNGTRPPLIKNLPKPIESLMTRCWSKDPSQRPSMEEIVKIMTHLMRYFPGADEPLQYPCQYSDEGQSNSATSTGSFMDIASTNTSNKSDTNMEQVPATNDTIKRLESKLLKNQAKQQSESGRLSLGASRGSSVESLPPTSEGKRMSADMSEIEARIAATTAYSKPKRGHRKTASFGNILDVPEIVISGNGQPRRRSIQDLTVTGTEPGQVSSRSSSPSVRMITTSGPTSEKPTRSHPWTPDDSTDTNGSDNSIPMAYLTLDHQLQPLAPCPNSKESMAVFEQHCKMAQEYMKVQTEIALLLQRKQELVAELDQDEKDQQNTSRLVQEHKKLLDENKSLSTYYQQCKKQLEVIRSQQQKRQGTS
Chain of MAP3K7 TAB1 (human) (Q15750 whole entry, looked up): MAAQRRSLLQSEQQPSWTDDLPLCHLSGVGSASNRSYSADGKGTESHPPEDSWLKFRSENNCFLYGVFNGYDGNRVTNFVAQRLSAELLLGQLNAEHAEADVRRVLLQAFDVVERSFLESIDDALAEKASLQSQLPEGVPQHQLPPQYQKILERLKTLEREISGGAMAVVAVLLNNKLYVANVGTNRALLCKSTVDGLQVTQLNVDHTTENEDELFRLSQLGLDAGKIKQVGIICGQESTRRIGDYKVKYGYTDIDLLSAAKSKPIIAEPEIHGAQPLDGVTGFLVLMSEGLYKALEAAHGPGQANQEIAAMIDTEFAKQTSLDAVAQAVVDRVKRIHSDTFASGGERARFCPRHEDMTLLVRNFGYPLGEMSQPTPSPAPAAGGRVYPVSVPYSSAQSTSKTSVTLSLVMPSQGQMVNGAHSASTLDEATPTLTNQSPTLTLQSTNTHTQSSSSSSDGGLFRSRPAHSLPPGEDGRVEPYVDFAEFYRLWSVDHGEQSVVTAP

[18] = molecular target: CDK9 CCNK (human) (UniProt O75909+P50750)
[19] = molecular target: CDK3 CCNE1 (human) (UniProt Q00526+P24864)
[20] = molecular target: CDK5 CDK5R1 p25 (human) (UniProt Q00535+Q15078)
Chain of CDK5 CDK5R1 p25 (human) (Q00535 whole entry, looked up): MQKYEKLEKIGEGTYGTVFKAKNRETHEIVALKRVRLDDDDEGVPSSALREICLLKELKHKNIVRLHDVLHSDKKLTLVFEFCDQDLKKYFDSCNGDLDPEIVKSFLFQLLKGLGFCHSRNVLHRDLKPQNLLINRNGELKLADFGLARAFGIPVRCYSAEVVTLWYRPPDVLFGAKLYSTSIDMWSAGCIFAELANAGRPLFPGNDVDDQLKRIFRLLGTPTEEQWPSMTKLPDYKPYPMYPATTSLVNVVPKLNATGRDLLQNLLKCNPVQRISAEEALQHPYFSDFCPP
Chain of CDK5 CDK5R1 p25 (human) (Q15078 whole entry, looked up): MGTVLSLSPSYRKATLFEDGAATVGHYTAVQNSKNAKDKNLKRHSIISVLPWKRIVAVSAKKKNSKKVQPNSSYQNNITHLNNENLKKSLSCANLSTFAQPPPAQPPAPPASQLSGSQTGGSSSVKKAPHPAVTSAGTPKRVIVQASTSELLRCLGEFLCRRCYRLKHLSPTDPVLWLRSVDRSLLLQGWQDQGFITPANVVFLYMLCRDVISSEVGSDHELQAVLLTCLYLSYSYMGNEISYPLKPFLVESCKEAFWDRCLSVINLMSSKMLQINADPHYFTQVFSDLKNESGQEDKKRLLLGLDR

[21] = molecular target: CDK9 CCNT1 (human) (UniProt P50750+O60563)
Chain of CDK9 CCNT1 (human) (O60563 whole entry, looked up): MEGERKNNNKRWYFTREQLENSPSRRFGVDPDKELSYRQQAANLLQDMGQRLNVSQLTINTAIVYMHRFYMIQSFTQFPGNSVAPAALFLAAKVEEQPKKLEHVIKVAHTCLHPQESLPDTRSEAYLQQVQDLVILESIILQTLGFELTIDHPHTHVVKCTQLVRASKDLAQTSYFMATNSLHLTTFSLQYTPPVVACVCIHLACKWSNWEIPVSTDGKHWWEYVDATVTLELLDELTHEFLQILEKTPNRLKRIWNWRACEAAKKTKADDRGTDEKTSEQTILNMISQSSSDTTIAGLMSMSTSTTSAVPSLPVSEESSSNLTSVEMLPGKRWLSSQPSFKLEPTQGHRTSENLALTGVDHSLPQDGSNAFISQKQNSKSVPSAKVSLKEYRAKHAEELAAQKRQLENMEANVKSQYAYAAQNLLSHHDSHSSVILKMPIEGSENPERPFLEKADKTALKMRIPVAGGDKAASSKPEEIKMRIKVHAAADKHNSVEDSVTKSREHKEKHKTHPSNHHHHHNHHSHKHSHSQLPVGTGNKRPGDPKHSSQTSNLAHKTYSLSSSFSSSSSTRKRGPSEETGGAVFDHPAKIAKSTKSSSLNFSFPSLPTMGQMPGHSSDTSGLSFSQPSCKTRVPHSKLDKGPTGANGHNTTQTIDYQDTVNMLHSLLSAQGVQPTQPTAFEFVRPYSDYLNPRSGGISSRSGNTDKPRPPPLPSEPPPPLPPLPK
Chain of CDK9 CCNT1 (human) (P50750 whole entry, looked up): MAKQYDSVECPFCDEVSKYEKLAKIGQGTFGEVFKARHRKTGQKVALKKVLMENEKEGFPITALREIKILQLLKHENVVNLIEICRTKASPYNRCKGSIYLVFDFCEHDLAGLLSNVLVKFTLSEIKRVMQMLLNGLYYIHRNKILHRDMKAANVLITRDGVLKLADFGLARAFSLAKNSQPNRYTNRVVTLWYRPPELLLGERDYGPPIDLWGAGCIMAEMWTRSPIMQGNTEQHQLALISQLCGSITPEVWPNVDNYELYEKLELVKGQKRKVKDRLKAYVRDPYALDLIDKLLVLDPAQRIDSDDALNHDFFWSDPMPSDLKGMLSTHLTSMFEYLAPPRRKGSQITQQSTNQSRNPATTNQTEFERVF

[22] = molecular target: AURKB (human) (UniProt Q96GD4)
[23] = molecular target: FLT3 (human) (UniProt P36888)
[24] = molecular target: AURKC (human) (UniProt Q9UQB9)

Chain of LTK (human) (P29376 whole entry, looked up): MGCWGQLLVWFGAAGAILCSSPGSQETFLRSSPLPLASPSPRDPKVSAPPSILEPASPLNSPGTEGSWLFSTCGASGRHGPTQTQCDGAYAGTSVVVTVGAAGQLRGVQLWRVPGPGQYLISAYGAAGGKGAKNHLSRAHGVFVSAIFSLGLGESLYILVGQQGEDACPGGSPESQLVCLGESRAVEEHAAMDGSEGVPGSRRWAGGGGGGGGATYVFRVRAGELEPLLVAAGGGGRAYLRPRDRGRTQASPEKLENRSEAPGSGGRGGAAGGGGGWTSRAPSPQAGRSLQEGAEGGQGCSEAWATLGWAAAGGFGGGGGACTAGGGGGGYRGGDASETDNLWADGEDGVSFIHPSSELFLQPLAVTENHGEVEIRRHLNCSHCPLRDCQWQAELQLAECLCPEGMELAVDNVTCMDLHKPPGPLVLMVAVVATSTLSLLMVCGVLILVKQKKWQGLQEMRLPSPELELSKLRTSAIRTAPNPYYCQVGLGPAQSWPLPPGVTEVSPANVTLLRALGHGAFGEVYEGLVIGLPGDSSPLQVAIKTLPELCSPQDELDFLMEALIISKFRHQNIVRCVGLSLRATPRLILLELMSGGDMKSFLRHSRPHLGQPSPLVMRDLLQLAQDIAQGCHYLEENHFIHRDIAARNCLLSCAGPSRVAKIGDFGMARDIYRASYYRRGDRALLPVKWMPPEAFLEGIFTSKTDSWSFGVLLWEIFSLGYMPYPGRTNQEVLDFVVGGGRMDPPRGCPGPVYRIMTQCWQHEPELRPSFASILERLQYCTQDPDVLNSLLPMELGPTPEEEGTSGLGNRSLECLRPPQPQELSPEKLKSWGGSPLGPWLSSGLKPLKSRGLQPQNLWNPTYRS

With `O=C1Nc2ccc3ncsc3c2/C1=C/c1c[nH]cn1` the residual activity [1] was 93.2%, the residual activity [2] was 11.3% and the residual activity [3] was 83%. It also gave a residual activity [4] of 79.6%, a residual activity [5] of 41.2% and a residual activity [6] of 35.7%.

`CCOc1nc(NC(=O)Cc2cc(OC)ccc2OC)cc(N)c1C#N` gave a residual activity [7] of 108%, a residual activity [8] of 88.9% and a residual activity [9] of 98.6%. It also gave a residual activity [10] of 92.2%, a residual activity [11] of 97.6% and a residual activity [12] of 103%. It also gave a residual activity [2] of 99.2%, a residual activity [13] of 105% and a residual activity [14] of 104%. For the same compound, the residual activity [15] was 95.2%, the residual activity [16] was 95.2% and the residual activity [17] was 96.6%. For the same compound, the residual activity [3] was 97.3%, the residual activity [18] was 89.2% and the residual activity [19] was 97.7%. The residual activity [20] was 96.8%, the residual activity [5] was 94.3% and the residual activity [6] was 97.7%. It also gave a residual activity [21] of 100%.

In the case of `NC(=O)c1ccc(-c2nc(-c3ccccn3)c(-c3ccc4c(c3)OCCO4)[nH]2)cc1`, the residual activity [7] is reported as 83.9%, the residual activity [8] is reported as 93.5% and the residual activity [9] is reported as 104%. For the same compound, the residual activity [10] was 97.1%, the residual activity [11] was 84% and the residual activity [12] was 97.6%. It also gave a residual activity [2] of 100%, a residual activity [13] of 98% and a residual activity [14] of 95%. It also gave a residual activity [15] of 94.1%, a residual activity [16] of 106% and a residual activity [17] of 104%. The residual activity [3] was 93.5%, the residual activity [18] was 97.1% and the residual activity [19] was 99.4%. The residual activity [20] was 91%, the residual activity [5] was 83.3% and the residual activity [6] was 98.3%. It also gave a residual activity [21] of 96.8%.

Work on `Cc1cc(Nc2cc(N3CCN(C)CC3)nc(Sc3ccc(NC(=O)C4CC4)cc3)n2)[nH]n1` yielded a residual activity [7] of 102%, a residual activity [8] of 94.4% and a residual activity [22] of 4.89%. For the same compound, the residual activity [9] was 121%, the residual activity [10] was 99.1% and the residual activity [11] was 97.4%. It also gave a residual activity [12] of 101%, a residual activity [2] of 98.8% and a residual activity [13] of 100%. For the same compound, the residual activity [14] was 87.8%, the residual activity [15] was 99.2% and the residual activity [23] was 6.67%. For the same compound, the residual activity [16] was 95.2%, the residual activity [17] was 90.7% and the residual activity [3] was 84.2%. It also gave a residual activity [18] of 102%, a residual activity [19] of 95.3% and a residual activity [20] of 93.8%. For the same compound, the residual activity [5] was 111%, the residual activity [6] was 90.1% and the residual activity [21] was 93.1%. The residual activity [24] was 40.4%.
